Laboratory results taken from patent US20090306053A1, “Highly selective rho-kinase inhibitor” (priority 2005, published 2009).
Counter-ions that a name gives are not always drawn.

Key:
Type in all cases: biochemical
[1] = molecular target: T1, Purified bovine PKA (catalyst subunit) (Bos taurus, UniProt P00517); experiment: PKA kinase assay (Kinase-Glo ATP consumption); details: relative ratio to ROCKII (=1.0), based on IC50 values
T1 construct: Purified bovine PKA (catalyst subunit, Promega); purchased Promega
Method: Purified bovine PKA (catalyst subunit, Promega) was used to evaluate its activity to phosphorylate a substrate peptide (LRRASLG, Promega).
(§1) In a system of the total volume of 50 μL, the reaction of the above-mentioned enzyme (43 ng) was carried out at room temperature for 20 minutes in the presence of 40 mM of Tris-HCl (pH 7.5), 20 mM of magnesium chloride, 1 mg/mL of BSA, 5 μM of the above peptide, and 1 μM of ATP. After the kinase reaction, the luminescence intensity corresponding to the amount of ATP in the reaction system was measured using a luciferase reagent (Kinase-Glo Luminescent Kinase Assay kit, Promega) with a chemiluminescence measurement apparatus (MicroLumat, Berthold Technologies). The amount of ATP consumed by the phosphorylation reaction was calculated by comparison with the luminescence intensity in the system when the kinase reaction was not carried out.
(§2) With this system, the kinase reaction was carried out in the presence of a compound at various concentrations, and the IC50 value of the compound was determined based on the resulting compound concentration-response curve for ATP consumption.
(§3) The ROCKII-inhibiting activity of a compound to be tested was defined as 1.0, and the inhibitory activities of the compound against kinases (PKA, PKG, CaMKII, and AuroraA) other than ROCKII were calculated as relative ratios to the ROCKII-inhibiting activity, based on the IC50 values calculated using the above-described evaluation system.

Purified bovine PKGα = molecular target: T2, Purified bovine PKGα (Bos taurus, UniProt P00516); experiment: PKG kinase assay (Kinase-Glo ATP consumption); details: relative ratio to ROCKII (=1.0), based on IC50 values
T2 construct: Purified bovine PKGα (Promega); purchased Promega
T2 sequence (P00516 1-671): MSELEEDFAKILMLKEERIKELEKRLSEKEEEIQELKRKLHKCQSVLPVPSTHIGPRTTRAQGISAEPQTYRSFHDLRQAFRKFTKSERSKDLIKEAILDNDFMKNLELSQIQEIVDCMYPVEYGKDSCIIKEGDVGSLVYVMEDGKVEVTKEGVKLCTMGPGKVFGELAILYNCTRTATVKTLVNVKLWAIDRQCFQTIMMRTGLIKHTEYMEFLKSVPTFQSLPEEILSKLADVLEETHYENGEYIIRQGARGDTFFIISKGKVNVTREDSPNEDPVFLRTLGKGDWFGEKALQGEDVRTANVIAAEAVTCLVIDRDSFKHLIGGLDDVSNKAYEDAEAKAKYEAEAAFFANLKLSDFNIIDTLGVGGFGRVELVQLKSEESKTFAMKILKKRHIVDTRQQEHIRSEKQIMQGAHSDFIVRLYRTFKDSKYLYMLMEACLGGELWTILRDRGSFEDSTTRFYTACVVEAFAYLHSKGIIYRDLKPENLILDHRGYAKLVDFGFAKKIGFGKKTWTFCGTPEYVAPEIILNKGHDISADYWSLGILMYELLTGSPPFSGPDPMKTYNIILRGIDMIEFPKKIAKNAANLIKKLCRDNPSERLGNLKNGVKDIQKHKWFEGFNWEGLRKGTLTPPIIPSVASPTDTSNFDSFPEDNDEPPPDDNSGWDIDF
Method: Purified bovine PKGα (Promega) was used to evaluate its activity to phosphorylate a substrate peptide (RKISASEF, Promega).
as §1, with “enzyme (64” for “enzyme (43”, “for 80” for “for 20”, “chloride, 10 μM” for “chloride, 1 mg/mL”, “of cGMP (Sigma), 100” for “of BSA, 5”
as §2, §3

Purified rat CaMKII = experiment: CaMKII kinase assay (Kinase-Glo ATP consumption); details: relative ratio to ROCKII (=1.0), based on IC50 values
Method: Purified rat CaMKII (containing CaMKIIα and small amounts of β, γ, and δ isoforms, Upstate) was used to evaluate its activity to phosphorylate a substrate peptide (KKALRRQETVDAL, Upstate).
as §1, with “enzyme (33” for “enzyme (43”, “for 60” for “for 20”, “of 50” for “of 40”, “Tris-HCl (pH7.5), 10” for “Tris-HCl (pH 7.5), 20”, “chloride, 2 mM of calcium chloride, 0.04” for “chloride, 1”, “BSA, 16 μg/mL of purified bovine brain calmodulin (Sigma), 0.5 mM of DTT, 50 µM” for “BSA, 5 μM”
as §2, §3

ROCKII (Rho-kinase) = ROCKII (Rho-kinase) (Homo sapiens, UniProt O75116); experiment: Rho-kinase (ROCKII) assay according to Patent Document 1; design: key to Realative Inhibitory Activity ROCKII: relative ratio; ROCKII-inhibiting activity defined as 1.0; details: ROCKII-inhibiting activity defined as 1.0 (reference)
Method: An Rho-kinase assay was carried out according to the method described in Patent Document 1, and the concentration of a compound for inhibiting Rho-kinase activity by 50% (hereinafter referred to as “IC50 value”) was calculated.
as §3

[2] = molecular target: T3, Recombinant human AuroraA (Homo sapiens, UniProt O14965); experiment: AuroraA kinase assay (Kinase-Glo ATP consumption); design: key to Realative Inhibitory Activity AuroraA: ratio relative to ROCKII-inhibiting activity defined as 1.0 (from IC50s); details: relative ratio to ROCKII (=1.0), based on IC50 values
T3 construct: purchased Upstate
T3 sequence (O14965 1-403): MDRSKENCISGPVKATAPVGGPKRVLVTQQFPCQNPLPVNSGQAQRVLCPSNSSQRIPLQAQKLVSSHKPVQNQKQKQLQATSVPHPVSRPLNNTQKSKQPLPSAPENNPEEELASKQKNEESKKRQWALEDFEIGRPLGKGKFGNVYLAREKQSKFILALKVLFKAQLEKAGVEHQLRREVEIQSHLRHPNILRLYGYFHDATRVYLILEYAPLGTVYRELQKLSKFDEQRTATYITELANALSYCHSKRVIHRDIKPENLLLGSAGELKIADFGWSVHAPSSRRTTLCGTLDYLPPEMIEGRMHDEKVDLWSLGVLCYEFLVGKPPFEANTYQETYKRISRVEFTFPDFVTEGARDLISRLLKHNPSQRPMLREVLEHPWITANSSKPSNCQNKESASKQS
Method: Recombinant human AuroraA (Upstate) was used to evaluate its activity to phosphorylate a substrate peptide (LRRASLG, Promega) was evaluated.
as §1, with “enzyme (40” for “enzyme (43”, “for 80” for “for 20”, “of MOPS-NaOH” for “of Tris-HCl”, “chloride, 200” for “chloride, 1 mg/mL of BSA, 5”
as §2, §3

Sequence of ROCKII (Rho-kinase) (O75116 whole entry, species assumed): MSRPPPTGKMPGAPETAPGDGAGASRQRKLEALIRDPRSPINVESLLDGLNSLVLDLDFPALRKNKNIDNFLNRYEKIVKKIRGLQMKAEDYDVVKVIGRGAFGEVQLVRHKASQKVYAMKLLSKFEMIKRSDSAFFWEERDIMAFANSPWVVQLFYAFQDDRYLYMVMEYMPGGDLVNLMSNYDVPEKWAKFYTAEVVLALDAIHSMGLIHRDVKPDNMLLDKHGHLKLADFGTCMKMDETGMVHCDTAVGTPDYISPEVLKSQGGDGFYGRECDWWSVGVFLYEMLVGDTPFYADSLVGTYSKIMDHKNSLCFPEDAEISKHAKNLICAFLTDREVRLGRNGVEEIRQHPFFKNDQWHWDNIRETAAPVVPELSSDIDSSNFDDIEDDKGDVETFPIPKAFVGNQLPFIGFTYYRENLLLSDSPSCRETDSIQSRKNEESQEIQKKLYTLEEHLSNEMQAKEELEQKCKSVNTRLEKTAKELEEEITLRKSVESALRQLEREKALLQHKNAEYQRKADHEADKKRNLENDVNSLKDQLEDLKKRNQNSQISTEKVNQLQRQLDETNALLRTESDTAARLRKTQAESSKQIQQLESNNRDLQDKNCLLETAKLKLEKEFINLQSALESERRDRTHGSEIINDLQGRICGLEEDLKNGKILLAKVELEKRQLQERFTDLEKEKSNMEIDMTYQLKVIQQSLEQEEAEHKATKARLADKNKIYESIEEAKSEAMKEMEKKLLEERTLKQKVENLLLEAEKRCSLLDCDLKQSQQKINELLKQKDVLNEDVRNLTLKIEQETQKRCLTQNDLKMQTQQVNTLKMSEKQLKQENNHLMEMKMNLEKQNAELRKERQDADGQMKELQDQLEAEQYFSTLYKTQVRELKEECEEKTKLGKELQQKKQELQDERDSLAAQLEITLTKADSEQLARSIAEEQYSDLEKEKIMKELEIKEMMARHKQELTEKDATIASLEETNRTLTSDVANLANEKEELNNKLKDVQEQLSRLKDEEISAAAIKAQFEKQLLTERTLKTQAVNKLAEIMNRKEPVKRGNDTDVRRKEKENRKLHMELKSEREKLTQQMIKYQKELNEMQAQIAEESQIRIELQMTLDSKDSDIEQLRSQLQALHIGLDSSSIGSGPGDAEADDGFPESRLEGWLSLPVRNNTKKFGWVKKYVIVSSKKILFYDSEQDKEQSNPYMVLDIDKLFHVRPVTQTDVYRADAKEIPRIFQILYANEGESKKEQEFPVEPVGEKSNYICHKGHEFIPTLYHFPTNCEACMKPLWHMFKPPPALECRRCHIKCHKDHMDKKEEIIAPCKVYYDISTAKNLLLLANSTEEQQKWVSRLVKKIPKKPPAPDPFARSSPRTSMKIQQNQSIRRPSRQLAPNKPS

Compound | Realative Inhibitory Activity PKA [1] | Realative Inhibitory Activity PKG (Purified bovine PKGα) | Realative Inhibitory Activity CaMKII (Purified rat CaMKII) | Realative Inhibitory Activity ROCKII (ROCKII (Rho-kinase)) | Realative Inhibitory Activity AuroraA [2]
2-(S)-4-(D-alanyl)-1-(4-fluoroisoquinoline-5-sulfonyl)-2-methylhomopiperazine dihydrochloride [Example 4] | >300 | 93 | 300 | 1 | >300
C[C@H](N)C(=O)N1CCCN(S(O)(O)c2cccc3cncc(F)c23)[C@@H](C)C1 [Example 3, 2-(S)-4-(L-alanyl)-1-(4-fluoroisoquinoline-5-sulfonyl)-2-methylhomopiperazine dihydrochloride] | >300 | 11 | 135 | 1 | 145
CC(C)[C@@H](N)C(=O)N1CCCN(S(O)(O)c2cccc3cncc(F)c23)[C@@H](C)C1 [Example 6, 2-(S)-1-(4-fluoroisoquinoline-5-sulfonyl)-2-methyl-4-(D-valyl)homopiperazine dihydrochloride] | >300 | 30 | >300 | 1 | >300
CC[C@H](N)C(=O)N1CCCN(S(O)(O)c2cccc3cncc(F)c23)[C@@H](C)C1 [Example 11, 2-(S)-4-(L-α-aminobutylyl)-1-(4-fluoroisoquinoline-5-sulfonyl)-2-methylhomopiperazine dihydrochloride] | >300 | 79 | 364 | 1 | 210
CC[C@@H](N)C(=O)N1CCCN(S(O)(O)c2cccc3cncc(F)c23)[C@@H](C)C1 [Example 12, 2-(S)-4-(D-α-aminobutylyl)-1-(4-fluoroisoquinoline-5-sulfonyl)-2-methylhomopiperazine dihydrochloride] | >300 | 92 | >300 | 1 | 244
